Data from the supplement of paper PMC4862054.

Tests used:
Conditions in all cases: incubation time: 72 h
Hs578T [1] = test: normalised response (% of control), CellTiter-Glo; higher = more viable cells (100 = DMSO, 0 = benzethonium chloride kill control)
Method: (§1)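 DSRT, 72 h incubation, CellTox Green / CellTiter-Glo readout. Signal is normalised to DMSO and benzethonium chloride controls. Value is the normalised response at dose 3.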

MDA-MB-231 [2] = test: as above
Method: as §1

CAL-85-1 [3] = test: as above
Method: as §1

HCC1143 [4] = test: as above
Method: as §1

MDA-MB-468 [5] = test: as above
Method: as §1

CAL-51 [6] = test: as above
Method: as §1

MCF-10A [7] = test: as above
Method: as §1

MDA-MB-453 [8] = test: as above
Method: as §1

HDQ-P1 [9] = test: as above
Method: as §1

BT-549 [10] = test: as above
Method: as §1

MDA-MB-436 [11] = test: as above
Method: as §1

MFM-223 [12] = test: as above
Method: as §1

SK-BR-3 = test: as above
Method: as §1

DU-4475 [13] = test: as above
Method: as §1

CAL-120 [14] = test: as above
Method: as §1

BT-474 [15] = test: as above
Method: as §1

HCC1599 [16] = test: as above
Method: as §1

HCC1937 [17] = test: as above
Method: as §1

CAL-148 [18] = test: as above
Method: as §1

Hs578T [19] = test: normalised response (% of control), CellTox Green; higher = less cell death (100 = DMSO, 0 = benzethonium chloride kill control)
In short: (§2)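 For each plate, 0.1 % DMSO was set to 100 and a positive kill control to 0. Breast cancer cell lines (20 µl suspension) were seeded into 384-well plates already holding compound at 5 concentrations in 10-fold steps over a 10,000-fold range chosen per compound, and incubated for 72 h. CellTox Green fluorescence at 485/520 nm was read before CellTiter-Glo luminescence, which followed 10 min at room temperature. Each value is the normalised signal at one concentration.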

MDA-MB-231 [20] = test: as above
In short: as §2

CAL-85-1 [21] = test: as above
In short: as §2

HCC1143 [22] = test: as above
In short: as §2

MDA-MB-468 [23] = test: as above
In short: as §2

CAL-51 [24] = test: as above
In short: as §2

MCF-10A [25] = test: as above
In short: as §2

MDA-MB-453 [26] = test: as above
In short: as §2

HDQ-P1 [27] = test: as above
In short: as §2

BT-549 [28] = test: as above
In short: as §2

MFM-223 [29] = test: as above
In short: as §2

DU-4475 [30] = test: as above
In short: as §2

CAL-120 [31] = test: as above
In short: as §2

BT-474 [32] = test: as above
In short: as §2

HCC1599 [33] = test: as above
In short: as §2

HCC1937 [34] = test: as above
In short: as §2

CAL-148 [35] = test: as above
In short: as §2

MDA-MB-436 [36] = test: as above
In short: as §2

SMILES | normalised response (Hs578T [1]) [%] | normalised response (MDA-MB-231 [2]) [%] | normalised response (CAL-85-1 [3]) [%] | normalised response (HCC1143 [4]) [%] | normalised response (MDA-MB-468 [5]) [%] | normalised response (CAL-51 [6]) [%] | normalised response (MCF-10A [7]) [%] | normalised response (MDA-MB-453 [8]) [%] | normalised response (HDQ-P1 [9]) [%] | normalised response (BT-549 [10]) [%] | normalised response (MDA-MB-436 [11]) [%] | normalised response (MFM-223 [12]) [%] | normalised response (SK-BR-3) [%] | normalised response (DU-4475 [13]) [%] | normalised response (CAL-120 [14]) [%] | normalised response (BT-474 [15]) [%] | normalised response (HCC1599 [16]) [%] | normalised response (HCC1937 [17]) [%] | normalised response (CAL-148 [18]) [%] | normalised response (Hs578T [19]) [%] | normalised response (MDA-MB-231 [20]) [%] | normalised response (CAL-85-1 [21]) [%] | normalised response (HCC1143 [22]) [%] | normalised response (MDA-MB-468 [23]) [%] | normalised response (CAL-51 [24]) [%] | normalised response (MCF-10A [25]) [%] | normalised response (MDA-MB-453 [26]) [%] | normalised response (HDQ-P1 [27]) [%] | normalised response (BT-549 [28]) [%] | normalised response (MFM-223 [29]) [%] | normalised response (DU-4475 [30]) [%] | normalised response (CAL-120 [31]) [%] | normalised response (BT-474 [32]) [%] | normalised response (HCC1599 [33]) [%] | normalised response (HCC1937 [34]) [%] | normalised response (CAL-148 [35]) [%] | normalised response (MDA-MB-436 [36]) [%]
O=C(O)CCCCC(CCSCc1ccccc1)SCc1ccccc1 (stereo not given) [CPI-613] (100 nM) | 99.6 | 107 | 96.4 | 106 | 102 | 61.4 | 107 | 104 | 99 | 105 | 101 | 106 | 104 | 101 | 98.9 | 106 | 114 | 101 | 108 | 105 | 51.4 | 104 | 73.1 | 122 | 75.1 | 104 | 101 | 107 | 96.5 | 64.3 | 101 | 102 | 93.3 | 95.4 | 103 | 104 | 
Nc1ccccc1NC(=O)c1ccc(CNC(=O)OCc2cccnc2)cc1 [Entinostat] (100 nM) | 102 | 98.6 | 112 | 103 | 96.8 | 76.1 | 108 | 103 | 104 | 115 | 102 | 104 | 107 | 105 | 98.2 | 94.8 | 96.9 | 94 | 104 | 109 | 103 | 103 | 67.2 | 105 | 101 |  | 101 | 107 | 110 | 99.3 | 100 | 97.4 | 100 | 96.6 | 101 | 104 | 80.2
N#Cc1ccc(C(c2ccc(C#N)cc2)n2cncn2)cc1 [Letrozole] (100 nM) | 105 | 101 | 103 | 104 | 94.5 | 104 | 103 | 101 | 96.7 | 104 | 105 | 106 | 102 | 102 | 99.8 | 95.5 | 95.9 | 94.2 | 97.2 | 75.3 | 79 | 114 | 108 |  | 103 | 105 | 100 | 53.6 | 96.3 | 94.5 | 101 | 91.1 | 93.5 | 102 | 83.5 | 87.3 | 
Nc1nc2[nH]cc(CCc3ccc(C(=O)N[C@@H](CCC(=O)O)C(=O)O)cc3)c2c(=O)[nH]1 [Pemetrexed] (100 nM) | 28.8 | 96.8 | 61 | 103 | 80.4 | 66.6 | 92.8 | 98.1 | 92.3 | 104 | 80.9 | 95.2 | 63.2 | 95 | 105 | 88.6 | 72.1 | 75.7 | 93.2 | 103 | 87.1 | 103 |  | 93 | 88.1 | 103 | 104 | 102 | 96.6 | 90.4 | 97.7 | 98 | 96.2 | 91.2 | 88.5 | 99.7 | 58.9
Cc1cnc(NC(=O)Nc2cc(Br)c(C)cc2OC[C@@H]2CNCCO2)cn1 [Rabusertib] (10 nM) | 107 | 109 | 102 | 104 | 108 | 91.9 | 107 | 118 | 96.3 | 98.4 | 115 | 104 | 110 | 104 | 109 | 97.6 | 106 | 99.7 | 112 | 108 | 122 | 95.2 |  | 89.4 | 106 | 103 | 106 | 94.3 | 95.7 | 109 | 106 | 102 | 102 | 110 | 119 | 98.4 | 107
CCCCC(=O)OCC(=O)[C@]1(O)Cc2c(O)c3c(c(O)c2[C@@H](O[C@H]2C[C@H](NC(=O)C(F)(F)F)[C@H](O)[C@H](C)O2)C1)C(=O)c1c(OC)cccc1C3=O [Valrubicin] (50 nM) | 101 | 97.4 | 98.8 | 104 | 92.9 | 72.7 | 101 | 118 | 102 | 86.2 | 92.2 | 101 | 94.8 | 84 | 98.4 | 98.2 | 91.7 | 97.9 | 97 | 114 | 122 | 118 | 111 | 152 | 76.7 | 106 | 108 | 107 | 121 | 108 | 109 | 111 | 103 | 115 |  | 76.3 | 101
